From patent publication US8952024B2, “Herbicidal pyrimidone derivatives” (E I du Pont de Nemours and Company, priority 2009, dated 2015)

Tests used:
Format in all cases: in vivo
[1] = test system: morningglory (Ipomoea spp.); assay: Test A pre-/postemergence plant response
In short: (§1)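 Seeds planted in loam soil/sand blend; test chemicals in non-phytotoxic solvent mixture with surfactant applied as directed soil spray preemergence and, concurrently, postemergence to plants 2–10 cm tall at one- to two-leaf stage. Greenhouse ~10 days; visual injury vs untreated controls, 0 (no effect) to 100 (complete control).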

[2] = test system: pigweed (Amaranthus retroflexus); assay: Test A pre-/postemergence plant response
In short: as §1

[3] = test system: giant foxtail (Setaria faberii); assay: Test B pre-/postemergence plant response; conditions: for Foxtail, Giant plant response rating (0 to 100 scale): 62 g ai/ha, 0 is no effect, 13 to 15 days
In short: (§2)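 Pre-em in loam/sand; post-em at 1–4 leaf (2–18 cm) in peat mix. Solvent + surfactant formulation. Greenhouse 13–15 d; visual % control vs untreated, 0–100.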

[4] = test system: goosegrass (Eleusine indica); assay: Test B pre-/postemergence plant response; conditions: for Goosegrass plant response rating (0 to 100 scale): 62 g ai/ha, 0 is no effect, 13 to 15 days
In short: as §2

[5] = test system: johnsongrass (Sorghum halepense); assay: Test B pre-/postemergence plant response; conditions: for Johnsongrass plant response rating (0 to 100 scale): 62 g ai/ha, 0 is no effect, 13 to 15 days
In short: as §2

[6] = test system: morningglory (Ipomoea coccinea); assay: Test B pre-/postemergence plant response; conditions: for Morningglory plant response rating (0 to 100 scale): 62 g ai/ha, 0 is no effect, 13 to 15 days
In short: as §2

[7] = test system: wheat (Triticum aestivum); assay: Test B pre-/postemergence plant response; conditions: for Wheat plant response rating (0 to 100 scale): 62 g ai/ha, postemergence, 0 is no effect, 100 is complete control, 13 to 15 days; for Plant response rating, Wheat: Postemergence, 125 g ai/ha, scale 0 to 100 (0 no effect, 100 complete control)
In short: as §2

[8] = test system: woolly cupgrass (Eriochloa villosa); assay: Test B pre-/postemergence plant response; conditions: for Cupgrass, Woolly plant response rating (0 to 100 scale): 62 g ai/ha, 0 is no effect, 13 to 15 days
In short: as §2

[9] = test system: barnyardgrass (Echinochloa crus-galli); assay: Test B flooded paddy test; conditions: for Plant response rating, Flood, Barnyardgrass: 250 g ai/ha, flooded paddy test, visual rating on 0 to 100 scale (0 no effect, 100 complete control) after 13 to 15 days; for Plant response rating, Barnyardgrass: Flood (flooded paddy test), 13 to 15 days; for Barnyardgrass plant response rating: Flood, 31 g ai/ha, scale 0 to 100 (0 no effect, 100 complete control)
In short: (§3)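 Visual scores run from 0 (no effect) to 100 (complete control), assigned by comparison with controls 13 to 15 days after treatment. Test compounds went straight into water standing 3 cm above the soil, around plants at the 2-leaf stage kept in a greenhouse.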

[10] = test system: ducksalad (Heteranthera limosa); assay: Test B flooded paddy test; conditions: for Plant response rating, Flood, Ducksalad: 250 g ai/ha, flooded paddy test, visual rating on 0 to 100 scale (0 no effect, 100 complete control) after 13 to 15 days; for Plant response rating, Ducksalad: Flood (flooded paddy test), 13 to 15 days; for Ducksalad plant response rating: Flood, 31 g ai/ha, scale 0 to 100 (0 no effect, 100 complete control)
In short: as §3

rice (Oryza sativa) = assay: Test B flooded paddy test; conditions: for Plant response rating, Flood, Rice: 250 g ai/ha, flooded paddy test, visual rating on 0 to 100 scale (0 no effect, 100 complete control) after 13 to 15 days; for Plant response rating, Rice: Flood (flooded paddy test), 13 to 15 days; for Rice plant response rating: Flood, 31 g ai/ha, scale 0 to 100 (0 no effect, 100 complete control)
In short: as §3

[11] = test system: umbrella sedge (Cyperus difformis); assay: Test B flooded paddy test; conditions: for Plant response rating, Flood, Sedge, Umbrella: 250 g ai/ha, flooded paddy test, visual rating on 0 to 100 scale (0 no effect, 100 complete control) after 13 to 15 days; for Plant response rating, Sedge, Umbrella: Flood (flooded paddy test), 13 to 15 days; for Sedge, Umbrella plant response rating: Flood, 31 g ai/ha, scale 0 to 100 (0 no effect, 100 complete control)
In short: as §3

[12] = Postemergence, 125 g ai/ha, 0 to 100 scale where 0 is no effect and 100 is complete control
[13] = Postemergence, 500 g ai/ha, 0 to 100 scale, 0 = no effect, 100 = complete control, approx. ten days
[14] = Preemergence, 125 g ai/ha, 0 to 100 scale, 0 = no effect, 100 = complete control
[15] = Preemergence, 500 g ai/ha, visual injury, 0 to 100 scale (0 no effect, 100 complete control), approx. ten days
[16] = 31 g ai/ha, postemergence, scale 0 to 100, 0 is no effect, 100 is complete control
[17] = postemergence, 100 is complete control
[18] = Postemergence, 125 g ai/ha, scale 0 to 100 (0 no effect, 100 complete control)
[19] = Postemergence, 250 g ai/ha, scale 0 to 100 (0 no effect, 100 complete control)
[20] = 62 g ai/ha, scale of 0 to 100 where 0 is no effect and 100 is complete control
[21] = 125 g ai/ha, scale 0 to 100, 0 is no effect, 100 is complete control

O=C1CCCC(O)=C1C(=O)c1cnc(-c2cccs2)n(CC2CCCO2)c1=O (stereo not shown) [Compound 109]
Plant response rating, Morningglory [1, 12]: 90 | Plant response rating, Morningglory [1, 13]: 100 | Plant response rating, Morningglory [1, 14]: 40 | Plant response rating, Morningglory [1, 15]: 70 | Plant response rating, Pigweed [2, 12]: 100 | Plant response rating, Pigweed [2, 13]: 100 | Plant response rating, Pigweed [2, 14]: 90 | Plant response rating, Pigweed [2, 15]: 100 | Plant response rating, Foxtail, Giant [3, 16]: 70 | Foxtail, Giant plant response rating (0 to 100 scale) [3, 17]: 75 | Plant response rating, Foxtail, Giant [3, 18]: 80 | Plant response rating, Foxtail, Giant [3, 19]: 90 | Plant response rating, Goosegrass [4, 16]: 65 | Goosegrass plant response rating (0 to 100 scale) [4, 17]: 75 | Plant response rating, Goosegrass [4, 18]: 80 | Plant response rating, Goosegrass [4, 19]: 85 | Plant response rating, Johnsongrass [5, 16]: 5 | Johnsongrass plant response rating (0 to 100 scale) [5, 17]: 30 | Plant response rating, Johnsongrass [5, 18]: 50 | Plant response rating, Johnsongrass [5, 19]: 75 | Plant response rating, Morningglory [6, 16]: 70 | Morningglory plant response rating (0 to 100 scale) [6, 17]: 98 | Plant response rating, Morningglory [6, 18]: 100 | Plant response rating, Morningglory [6, 19]: 100 | Wheat plant response rating (0 to 100 scale) [7]: 5 | Plant response rating, Wheat [7]: 5 | Cupgrass, Woolly plant response rating (0 to 100 scale) [8, 17]: 60 | Plant response rating, Cupgrass, Woolly [8, 18]: 60 | Plant response rating, Cupgrass, Woolly [8, 19]: 75 | Plant response rating, Flood, Barnyardgrass [9]: 20 | Plant response rating, Barnyardgrass [9, 20]: 0 | Plant response rating, Barnyardgrass [9, 21]: 20 | Barnyardgrass plant response rating [9]: 0 | Plant response rating, Flood, Ducksalad [10]: 100 | Plant response rating, Ducksalad [10, 20]: 60 | Plant response rating, Ducksalad [10, 21]: 65 | Ducksalad plant response rating [10]: 50 | Plant response rating, Flood, Rice (rice (Oryza sativa)): 25 | Plant response rating, Rice (rice (Oryza sativa); [20]): 0 | Plant response rating, Rice (rice (Oryza sativa); [21]): 20 | Rice plant response rating (rice (Oryza sativa)): 0 | Plant response rating, Flood, Sedge, Umbrella [11]: 80 | Plant response rating, Sedge, Umbrella [11, 20]: 60 | Plant response rating, Sedge, Umbrella [11, 21]: 75 | Sedge, Umbrella plant response rating [11]: 50

COCCn1c(-c2ccco2)ncc(C(=O)C2=C(O)CCCC2=O)c1=O [Compound 111]
Plant response rating, Morningglory [1, 12]: 100 | Plant response rating, Morningglory [1, 13]: 100 | Plant response rating, Morningglory [1, 14]: 50 | Plant response rating, Morningglory [1, 15]: 80 | Plant response rating, Pigweed [2, 12]: 100 | Plant response rating, Pigweed [2, 13]: 100 | Plant response rating, Pigweed [2, 14]: 100 | Plant response rating, Pigweed [2, 15]: 100 | Plant response rating, Foxtail, Giant [3, 16]: 60 | Foxtail, Giant plant response rating (0 to 100 scale) [3, 17]: 65 | Plant response rating, Foxtail, Giant [3, 18]: 65 | Plant response rating, Foxtail, Giant [3, 19]: 70 | Plant response rating, Goosegrass [4, 16]: 70 | Goosegrass plant response rating (0 to 100 scale) [4, 17]: 70 | Plant response rating, Goosegrass [4, 18]: 85 | Plant response rating, Goosegrass [4, 19]: 85 | Plant response rating, Johnsongrass [5, 16]: 10 | Johnsongrass plant response rating (0 to 100 scale) [5, 17]: 15 | Plant response rating, Johnsongrass [5, 18]: 20 | Plant response rating, Johnsongrass [5, 19]: 40 | Plant response rating, Morningglory [6, 16]: 100 | Morningglory plant response rating (0 to 100 scale) [6, 17]: 100 | Plant response rating, Morningglory [6, 18]: 100 | Plant response rating, Morningglory [6, 19]: 100 | Wheat plant response rating (0 to 100 scale) [7]: 0 | Plant response rating, Wheat [7]: 5 | Plant response rating, Cupgrass, Woolly [8, 16]: 40 | Cupgrass, Woolly plant response rating (0 to 100 scale) [8, 17]: 50 | Plant response rating, Cupgrass, Woolly [8, 18]: 75 | Plant response rating, Cupgrass, Woolly [8, 19]: 75 | Plant response rating, Flood, Barnyardgrass [9]: 60 | Plant response rating, Barnyardgrass [9, 20]: 40 | Plant response rating, Barnyardgrass [9, 21]: 50 | Barnyardgrass plant response rating [9]: 0 | Plant response rating, Flood, Ducksalad [10]: 75 | Plant response rating, Ducksalad [10, 20]: 30 | Plant response rating, Ducksalad [10, 21]: 75 | Ducksalad plant response rating [10]: 30 | Plant response rating, Flood, Rice (rice (Oryza sativa)): 30 | Plant response rating, Rice (rice (Oryza sativa); [20]): 0 | Plant response rating, Rice (rice (Oryza sativa); [21]): 0 | Rice plant response rating (rice (Oryza sativa)): 0 | Plant response rating, Flood, Sedge, Umbrella [11]: 85 | Plant response rating, Sedge, Umbrella [11, 20]: 75 | Plant response rating, Sedge, Umbrella [11, 21]: 80 | Sedge, Umbrella plant response rating [11]: 0
